Measured values published in publication PMC6941144 (ACS chemical biology, 2019).

Key:
HIV-1 protease 11Mut = HIV-1 protease 11Mut (Human immunodeficiency virus type 1 group M subtype B, UniProt P12497, A559V/G504E/I501V/I542L/I572V/K533I/L521F/L564V/M534I/Q495K/V520I/V570F); details: 11Mut vs WT
[1] = tested on: HIV-1 protease 2Mut (V82F, I84V); assay: Enzyme inhibition; assay type: biochemical; details: primary active site mutations (2 mutations); abstract
HIV-1 protease 10Mut = HIV-1 protease 10Mut (Human immunodeficiency virus type 1 group M subtype B, UniProt P12497, A559V/G504E/I501V/I572V/K533I/L521F/L564V/M534I/Q495K/V520I/V570F); details: relative to 8Mut; ΔG = RTln[Ki]
HIV-1 protease 9Mut-A71V = HIV-1 protease 9Mut-A71V (Human immunodeficiency virus type 1 group M subtype B, UniProt P12497, A559V/G504E/I501V/I572V/K533I/L521F/M534I/Q495K/V520I/V570F); details: relative to 8Mut; ΔG = RTln[Ki]
HIV-1 protease 9Mut-L76V = HIV-1 protease 9Mut-L76V (Human immunodeficiency virus type 1 group M subtype B, UniProt P12497, G504E/I501V/I572V/K533I/L521F/L564V/M534I/Q495K/V520I/V570F); details: relative to 8Mut; ΔG = RTln[Ki]

SMILES: CC(C)CN(C[C@@H](O)[C@H](Cc1ccccc1)NC(=O)O[C@H]1CO[C@H]2OCC[C@H]21)S(=O)(=O)c1ccc(N)cc1 [DRV, Darunavir]
- decrease in inhibition compared to WT (HIV-1 protease 11Mut): 152,000 fold
- loss in potency [1]: ~ 50 fold
- ΔΔG10Mut (change in free energy of inhibitor binding) (HIV-1 protease 10Mut): 1.45 ± 0.05 kcal/mol
- ΔΔG9Mut-A71V (change in free energy of inhibitor binding) (HIV-1 protease 9Mut-A71V): 0.35 ± 0.07 kcal/mol
- ΔΔG9Mut-L76V (change in free energy of inhibitor binding) (HIV-1 protease 9Mut-L76V): 1.55 ± 0.10 kcal/mol
